Experimental data taken from PubChem BioAssay (NCI).
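GI50 is the concentration that inhibits growth by half. Definition used: TGI = concentration required for complete inhibition of growth.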

How the values were obtained:
Experiment in all cases: NCI-60 cell line screen, 384-well format
KM12 colon = system: KM12 colon
CAKI-1 renal = system: CAKI-1 renal
UACC-257 melanoma = system: UACC-257 melanoma
OVCAR-4 ovarian = system: OVCAR-4 ovarian
UO-31 renal = system: UO-31 renal
HT29 colon = system: HT29 colon
RPMI-8226 leukemia = system: RPMI-8226 leukemia
OVCAR-5 ovarian = system: OVCAR-5 ovarian
MCF7 breast = system: MCF7 breast
SR leukemia = system: SR leukemia
LOX IMVI melanoma = system: LOX IMVI melanoma
HL-60(TB) leukemia = system: HL-60(TB) leukemia
HCC-2998 colon = system: HCC-2998 colon
HCT-15 colon = system: HCT-15 colon
ACHN renal = system: ACHN renal
SF-295 CNS = system: SF-295 CNS
MDA-MB-468 breast = system: MDA-MB-468 breast
SK-MEL-2 melanoma = system: SK-MEL-2 melanoma
SK-MEL-5 melanoma = system: SK-MEL-5 melanoma
SNB-19 CNS = system: SNB-19 CNS
T-47D breast = system: T-47D breast
CCRF-CEM leukemia = system: CCRF-CEM leukemia
SK-OV-3 ovarian = system: SK-OV-3 ovarian
NCI-H460 NSCLC = system: NCI-H460 NSCLC
UACC-62 melanoma = system: UACC-62 melanoma
OVCAR-8 ovarian = system: OVCAR-8 ovarian
K-562 leukemia = system: K-562 leukemia
786-0 renal = system: 786-0 renal
RXF 393 renal = system: RXF 393 renal
BT-549 breast = system: BT-549 breast
NCI-H322M lung = system: NCI-H322M lung
M14 melanoma = system: M14 melanoma
COLO 205 colon = system: COLO 205 colon
A498 renal = system: A498 renal
U251 glioblastoma = system: U251 glioblastoma
A549 NSCLC = system: A549 NSCLC
HOP-92 NSCLC = system: HOP-92 NSCLC
NCI-H226 lung = system: NCI-H226 lung
HCT-116 colon = system: HCT-116 colon
NCI-H23 lung = system: NCI-H23 lung
MALME-3M melanoma = system: MALME-3M melanoma
MDA-MB-435 melanoma = system: MDA-MB-435 melanoma
SN12C renal = system: SN12C renal
MOLT-4 leukemia = system: MOLT-4 leukemia
IGROV1 ovarian = system: IGROV1 ovarian
SF-539 CNS = system: SF-539 CNS
TK-10 renal = system: TK-10 renal
SW-620 colon = system: SW-620 colon
PC-3 prostate = system: PC-3 prostate
SK-MEL-28 melanoma = system: SK-MEL-28 melanoma
SF-268 CNS = system: SF-268 CNS
NCI/ADR-RES ovarian = system: NCI/ADR-RES ovarian
DU-145 prostate = system: DU-145 prostate
HOP-62 NSCLC = system: HOP-62 NSCLC
NCI-H522 lung = system: NCI-H522 lung

SMILES: C/C(=N\NC(=O)c1cccc(S(=O)(=O)N2CCN(C)CC2)c1)c1cc(Cl)ccc1O
- GI50 (KM12 colon): 541 nM
- TGI (KM12 colon): 14700 nM
- GI50 (CAKI-1 renal): 472 nM
- TGI (CAKI-1 renal): 10200 nM
- GI50 (UACC-257 melanoma): 521 nM
- TGI (UACC-257 melanoma): 3980 nM
- GI50 (OVCAR-4 ovarian): 201 nM
- TGI (OVCAR-4 ovarian): 29000 nM
- GI50 (UO-31 renal): 489 nM
- TGI (UO-31 renal): 8090 nM
- GI50 (HT29 colon): 439 nM
- TGI (HT29 colon): 13600 nM
- GI50 (RPMI-8226 leukemia): 339 nM
- TGI (RPMI-8226 leukemia): 1180 nM
- GI50 (OVCAR-5 ovarian): 455 nM
- TGI (OVCAR-5 ovarian): 35300 nM
- GI50 (MCF7 breast): 594 nM
- TGI (MCF7 breast): 8010 nM
- GI50 (SR leukemia): 144 nM
- TGI (SR leukemia): 287 nM
- GI50 (LOX IMVI melanoma): 644 nM
- TGI (LOX IMVI melanoma): 2030 nM
- GI50 (HL-60(TB) leukemia): 442 nM
- TGI (HL-60(TB) leukemia): 1220 nM
- GI50 (HCC-2998 colon): 54.5 nM
- TGI (HCC-2998 colon): 15000 nM
- GI50 (HCT-15 colon): 301 nM
- TGI (HCT-15 colon): 12900 nM
- GI50 (ACHN renal): 627 nM
- TGI (ACHN renal): 13400 nM
- GI50 (SF-295 CNS): 250 nM
- TGI (SF-295 CNS): 1310 nM
- GI50 (MDA-MB-468 breast): 177 nM
- TGI (MDA-MB-468 breast): 382 nM
- GI50 (SK-MEL-2 melanoma): 567 nM
- TGI (SK-MEL-2 melanoma): 3580 nM
- GI50 (SK-MEL-5 melanoma): 62 nM
- TGI (SK-MEL-5 melanoma): 441 nM
- GI50 (SNB-19 CNS): 1060 nM
- TGI (SNB-19 CNS): 6020 nM
- GI50 (T-47D breast): 657 nM
- TGI (T-47D breast): 9270 nM
- GI50 (CCRF-CEM leukemia): 216 nM
- TGI (CCRF-CEM leukemia): 1070 nM
- GI50 (SK-OV-3 ovarian): 422 nM
- TGI (SK-OV-3 ovarian): 57200 nM
- GI50 (NCI-H460 NSCLC): 296 nM
- TGI (NCI-H460 NSCLC): 1210 nM
- GI50 (UACC-62 melanoma): 544 nM
- TGI (UACC-62 melanoma): 2860 nM
- GI50 (OVCAR-8 ovarian): 477 nM
- TGI (OVCAR-8 ovarian): 1950 nM
- GI50 (K-562 leukemia): 2620 nM
- TGI (K-562 leukemia): 13800 nM
- GI50 ([…]-0 renal): 345 nM
- TGI (786-0 renal): 2210 nM
- GI50 (RXF 393 renal): 43 nM
- TGI (RXF 393 renal): 557 nM
- GI50 (BT-549 breast): 351 nM
- TGI (BT-549 breast): 4190 nM
- GI50 (NCI-H322M lung): 231 nM
- TGI (NCI-H322M lung): 32000 nM
- GI50 (M14 melanoma): 247 nM
- TGI (M14 melanoma): 1990 nM
- GI50 (COLO 205 colon): 236 nM
- TGI (COLO 205 colon): 594 nM
- GI50 (A498 renal): 268 nM
- TGI (A498 renal): 20100 nM
- GI50 (U251 glioblastoma): 478 nM
- TGI (U251 glioblastoma): 8250 nM
- GI50 (A549 NSCLC): 447 nM
- TGI (A549 NSCLC): > 100000 nM
- GI50 (HOP-92 NSCLC): 573 nM
- TGI (HOP-92 NSCLC): 6820 nM
- GI50 (NCI-H226 lung): 523 nM
- TGI (NCI-H226 lung): 3450 nM
- GI50 (HCT-116 colon): 425 nM
- TGI (HCT-116 colon): 2020 nM
- GI50 (NCI-H23 lung): 236 nM
- TGI (NCI-H23 lung): 590 nM
- GI50 (MALME-3M melanoma): 641 nM
- TGI (MALME-3M melanoma): 8520 nM
- GI50 (MDA-MB-435 melanoma): 557 nM
- TGI (MDA-MB-435 melanoma): 74200 nM
- GI50 (SN12C renal): 735 nM
- TGI (SN12C renal): 3360 nM
- GI50 (MOLT-4 leukemia): 114 nM
- TGI (MOLT-4 leukemia): 240 nM
- GI50 (IGROV1 ovarian): 339 nM
- TGI (IGROV1 ovarian): 2750 nM
- GI50 (SF-539 CNS): 442 nM
- TGI (SF-539 CNS): 3310 nM
- GI50 (TK-10 renal): 642 nM
- TGI (TK-10 renal): 19800 nM
- GI50 (SW-620 colon): 1640 nM
- TGI (SW-620 colon): 19000 nM
- GI50 (PC-3 prostate): 1160 nM
- TGI (PC-3 prostate): 17400 nM
- GI50 (SK-MEL-28 melanoma): 134 nM
- TGI (SK-MEL-28 melanoma): 14300 nM
- GI50 (SF-268 CNS): 141 nM
- TGI (SF-268 CNS): 2150 nM
- GI50 (NCI/ADR-RES ovarian): 777 nM
- TGI (NCI/ADR-RES ovarian): 2360 nM
- GI50 (DU-145 prostate): 534 nM
- TGI (DU-145 prostate): 11600 nM
- GI50 (HOP-62 NSCLC): 142 nM
- TGI (HOP-62 NSCLC): 898 nM
- GI50 (NCI-H522 lung): 471 nM
- TGI (NCI-H522 lung): 12000 nM
